According to patent publication EP4707280A1, “1,4-CINEOLE DERIVATIVE AND INTERMEDIATE THEREOF, HERBICIDE CONTAINING SAID DERIVATIVE AS ACTIVE INGREDIENT, METHOD FOR USING HERBICIDE, AND METHOD FOR PREPARING AGROCHEMICAL COMPOSITION” (HOKKO CHEMICAL INDUSTRY CO., LTD., priority 2023, dated 2024):

Legend:
Assay type in all cases: in vivo
[1] = tested on: Echinochloa crus-galli var. formosensis; test: Test Example 6: herbicidal effect test by application during growth period of paddy rice (low dose); settings: Echinochloa crus-galli; 7.5 g per 10 ares; applied seven days after sowing, flooded pots; 14 days after application; read-out: weed inhibition rate
Outline: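 Paddy-soil pots, flooded ~3 cm after sowing weed seeds at 0-1 cm depth, greenhouse-grown. Seven days after sowing, diluted emulsifiable concentrate applied by dropper at 7.5 g active ingredient per 10 ares. Weed inhibition rate (%) scored 14 days after application, in duplicate.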

[2] = tested on: Scirpus juncoides; test: Test Example 2: herbicidal effect test by application during growth period of paddy rice; settings: Schoenoplectiella juncoides; 120 g per 10 ares; applied seven days after sowing, flooded pots; 14 days after application; read-out: weed inhibition rate
Outline: (§1)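 Greenhouse pots of flooded paddy soil, seeded shallowly with 30 seeds per weed, are treated on day 7 by dropper with diluted emulsifiable concentrate equal to 120 g a.i./10 a. Duplicate pots are scored for inhibition rate 14 days post-application.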

[3] = tested on: Echinochloa crus-galli var. formosensis; test: as above; settings: Echinochloa crus-galli; 120 g per 10 ares; applied seven days after sowing, flooded pots; 14 days after application; read-out: weed inhibition rate
Outline: as §1

[4] = tested on: Echinochloa crus-galli; test: Test Example 3: herbicidal effect test by soil application in upland field; settings: Echinochloa crus-galli, 120 g per 10 ares, sprayed one day after sowing, 14 days after application, read-out: weed inhibition rate
Outline: (§2)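 Pre-emergence test: seeds mixed into top 1 cm of alluvial loam upland soil in pots; emulsifiable concentrate diluted in water sprayed on soil one day after sowing at 100 L/10 a, 120 g a.i./10 a. Weed inhibition rate (%) scored at 14 days, in duplicate.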

[5] = tested on: Digitaria ciliaris; test: as above; settings: Digitaria ciliaris, 120 g per 10 ares, sprayed one day after sowing, 14 days after application, read-out: weed inhibition rate
Outline: as §2

[6] = tested on: Scirpus juncoides; test: Test Example 1: herbicidal effect test by soil application in paddy rice; settings: Schoenoplectiella juncoides, soil, 336 h; 120 g active ingredient per 10 ares; applied immediately after sowing, flooded pots; 14 days after application; read-out: weed inhibition rate
Outline: (§3)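 Weeds sown 0–1 cm deep (30 seeds each) into fertilized, puddled paddy soil in Wagner pots. Pots are flooded immediately, water held near 3 cm, and the diluted emulsifiable concentrate is dripped in at once, delivering 120 g active ingredient per 10 ares under glass-greenhouse management.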

[7] = tested on: Echinochloa crus-galli var. formosensis; test: as above; settings: Echinochloa crus-galli, soil, 336 h; 120 g active ingredient per 10 ares; applied immediately after sowing, flooded pots; 14 days after application; read-out: weed inhibition rate
Outline: as §3

[8] = tested on: Echinochloa crus-galli; test: Test Example 4: herbicidal effect test by stem and leaf treatment in upland field; settings: Echinochloa crus-galli; 120 g per 10 ares; sprayed seven days after sowing, upland soil; 14 days after application; read-out: weed inhibition rate
[9] = tested on: Digitaria ciliaris; test: as above; settings: Digitaria ciliaris; 120 g per 10 ares; sprayed seven days after sowing, upland soil; 14 days after application; read-out: weed inhibition rate
[10] = tested on: Echinochloa crus-galli var. formosensis; test: Test Example 5: herbicidal effect test by soil application in paddy rice (low dose); settings: Echinochloa crus-galli, soil, 336 h; 7.5 g per 10 ares; applied immediately after sowing, flooded pots; 14 days after application; read-out: weed inhibition rate
Outline: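 7.5 g a.i./10 a applied by dropper into ~3 cm floodwater immediately post-sowing (seeds 0–1 cm, 30 per species; puddled fertilized paddy soil, glasshouse). Duplicates; day-14 inhibition %.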

[11] = tested on: Echinochloa crus-galli; test: Test Example 7: herbicidal effect test by soil application in upland field (low dose); settings: Echinochloa crus-galli, 7.5 g per 10 ares, sprayed one day after sowing, 14 days after application, read-out: weed inhibition rate
Outline: (§4)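 Duplicate pots of alluvial loam, seeds incorporated in the surface 1 cm. Soil surface sprayed 1 d after sowing (EC in water, 100 L/10 a; 7.5 g a.i./10 a). Endpoint: % inhibition, day 14.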

[12] = tested on: Digitaria ciliaris; test: as above; settings: Digitaria ciliaris, 7.5 g per 10 ares, sprayed one day after sowing, 14 days after application, read-out: weed inhibition rate
Outline: as §4

[13] = tested on: Echinochloa crus-galli; test: Test Example 8: herbicidal effect test by stem and leaf treatment in upland field (low dose); settings: Echinochloa crus-galli; 7.5 g per 10 ares; sprayed seven days after sowing, upland soil; 14 days after application; read-out: weed inhibition rate
[14] = tested on: Digitaria ciliaris; test: as above; settings: Digitaria ciliaris; 7.5 g per 10 ares; sprayed seven days after sowing, upland soil; 14 days after application; read-out: weed inhibition rate

CC(C)[C@]12C[C@@H](OCc3c(F)cccc3Br)[C@](C)(C[C@@H]1Cl)O2 [1-1613, (1R,2S,4S,5R)-5-[(2-bromo-6-fluoro-phenyl)methoxy]-2-chloro-1-isopropyl-4-methyl-7-oxabicyclo[2.2.1]heptane]
≥ 80%: inhibition at 75 g/ha [1] | inhibition at 1200 g/ha [2] | inhibition at 1200 g/ha [3] | inhibition at 1200 g/ha [4] | inhibition at 1200 g/ha [5] | pest or weed control at 1200 g/ha [6] | pest or weed control at 1200 g/ha [7] | inhibition at 1200 g/ha [8] | inhibition at 1200 g/ha [9] | inhibition at 75 g/ha [10] | inhibition at 75 g/ha [11] | inhibition at 75 g/ha [12] | inhibition at 75 g/ha [13] | inhibition at 75 g/ha [14]

CC(C)C12CC(OCc3ccccc3C#N)C(C)(CC1I)O2 (stereo not shown) [1-1436, 2-[(5-iodo-1-methyl-4-isopropyl-7-oxabicyclo[2.2.1]heptan-2-yl)oxymethyl]benzonitrile]
≥ 80%: inhibition at 75 g/ha [1] | inhibition at 1200 g/ha [2] | inhibition at 1200 g/ha [3] | inhibition at 1200 g/ha [4] | inhibition at 1200 g/ha [5] | pest or weed control at 1200 g/ha [6] | pest or weed control at 1200 g/ha [7] | inhibition at 1200 g/ha [8] | inhibition at 1200 g/ha [9] | inhibition at 75 g/ha [10] | inhibition at 75 g/ha [11] | inhibition at 75 g/ha [12] | inhibition at 75 g/ha [13] | inhibition at 75 g/ha [14]

COc1ccccc1CO[C@@H]1C[C@]2(C(C)C)O[C@@]1(C)C[C@@H]2I [1-747, (1R,2S,4S,5R)-2-iodo-1-isopropyl-5-[(2-methoxyphenyl)methoxy]-4-methyl-7-oxabicyclo[2.2.1]heptane]
≥ 80%: inhibition at 75 g/ha [1] | inhibition at 1200 g/ha [2] | inhibition at 1200 g/ha [3] | inhibition at 1200 g/ha [4] | inhibition at 1200 g/ha [5] | pest or weed control at 1200 g/ha [6] | pest or weed control at 1200 g/ha [7] | inhibition at 1200 g/ha [8] | inhibition at 1200 g/ha [9] | inhibition at 75 g/ha [10] | inhibition at 75 g/ha [11] | inhibition at 75 g/ha [12] | inhibition at 75 g/ha [13] | inhibition at 75 g/ha [14]

CC(C)C12C=CC(C)(O1)C(OCc1ccsc1)C2 (stereo not shown) [3-757, 1-isopropyl-4-methyl-5-(3-thienylmethoxy)-7-oxabicyclo[2.2.1]hept-2-ene]
≥ 80%: inhibition at 75 g/ha [1] | inhibition at 1200 g/ha [2] | inhibition at 1200 g/ha [3] | inhibition at 1200 g/ha [4] | inhibition at 1200 g/ha [5] | pest or weed control at 1200 g/ha [6] | pest or weed control at 1200 g/ha [7] | inhibition at 1200 g/ha [8] | inhibition at 1200 g/ha [9] | inhibition at 75 g/ha [10] | inhibition at 75 g/ha [11] | inhibition at 75 g/ha [12] | inhibition at 75 g/ha [13] | inhibition at 75 g/ha [14]

CC(C)C12CC(OCc3c(F)cccc3Br)C(C)(CC1Cl)O2 (stereo not shown) [1-1611, 2-[(2-bromo-6-fluorophenyl)methoxy]-5-chloro-1-methyl-4-isopropyl-7-oxabicyclo[2.2.1]heptane]
≥ 80%: inhibition at 75 g/ha [1] | inhibition at 1200 g/ha [2] | inhibition at 1200 g/ha [3] | inhibition at 1200 g/ha [4] | inhibition at 1200 g/ha [5] | pest or weed control at 1200 g/ha [6] | pest or weed control at 1200 g/ha [7] | inhibition at 1200 g/ha [8] | inhibition at 1200 g/ha [9] | inhibition at 75 g/ha [10] | inhibition at 75 g/ha [11] | inhibition at 75 g/ha [12] | inhibition at 75 g/ha [13] | inhibition at 75 g/ha [14]
